Here are results for five compounds from ChEMBL document CHEMBL1201862, “PubChem BioAssay data set” (2004).

Test systems include UO-31; KM12; DLD-1; RXF 393; OVCAR-5; 786-0; OVCAR-3; RPMI-8226; IGROV-1; HOP-62; SNB-19; COLO 205; SF-539; M19-MEL; HCT-116; MDA-N; DU-145; NCI/ADR-RES; MDA-MB-435; Hs-578T.
Common to all, as to test: NCI-60 cell line screen, 48 h

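Step 1: Grow cells in 96-well plates. Step 2: Expose to compound for 48 hours at 5 concentrations. Step 3: Interpolate endpoints linearly; if unreached, use highest concentration. GI50 is the concentration that inhibits growth by half.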 Calls of active or inactive are those of the source. No stated cut-off is given here; in the data, active = GI50 up to about 1.1 µM and inactive = higher.

With `CC(=O)NC(CCCNC(=O)OCc1ccccc1)C(=O)NCc1ccccc1` (stereo unspecified), the GI50 in the assay with UO-31, in the assay with KM12, with DLD-1, in the assay with RXF 393, in the assay with OVCAR-5 and in the assay with 786-0 was > 100 µM (inactive) each time. The GI50 with OVCAR-3, with RPMI-8226, with IGROV-1, with HOP-62, in the assay on SNB-19 and in the assay with COLO 205 was > 100 µM (inactive) in each case. The GI50 with SF-539, in the assay on M19-MEL and with HCT-116 was > 100 µM (inactive) in each case.

`Cc1cc(C)c2c(c1C)CN1CN2Cc2c(C)c(C)cc(C)c21`: the GI50 is > 100 µM (inactive) with UO-31; > 100 µM (inactive) in the assay with KM12; 20.8 µM (inactive) in the assay with DLD-1; 4.38 µM (inactive) with RXF 393; > 100 µM (inactive) in the assay on OVCAR-5; > 100 µM (inactive) in the assay with 786-0. Besides, the GI50 is 18.9 µM (inactive) in the assay on OVCAR-3; > 100 µM (inactive) in the assay with RPMI-8226; > 100 µM (inactive) in the assay on IGROV-1; > 100 µM (inactive) with HOP-62; < 0.01 µM (active) in the assay with SNB-19; 45.6 µM (inactive) in the assay with COLO 205. Moreover, the figures for the GI50 with SF-539, in the assay on M19-MEL and in the assay with HCT-116 were > 100 µM (inactive), 30.5 µM (inactive) and > 100 µM (inactive), respectively.

Consider `O=C(NC(=O)c1ccccc1[N+](=O)[O-])Nc1ccc(Oc2ncc(Cl)cn2)c([N+](=O)[O-])c1`, for which the GI50 is 0.573 µM (active) in the assay on UO-31; 0.0227 µM (active) in the assay on MDA-N; 0.0975 µM (active) in the assay on KM12; 0.217 µM (active) in the assay with DLD-1; 0.373 µM (active) in the assay on RXF 393; 0.875 µM (active) in the assay with OVCAR-5. The GI50 in the assay with DU-145 was 0.291 µM (active); with 786-0, 0.225 µM (active); in the assay on OVCAR-3 it was 0.0644 µM (active); in the assay on RPMI-8226, 0.187 µM (active); with IGROV-1 it was 0.368 µM (active); with HOP-62, 0.303 µM (active). The GI50 with SNB-19 was 2.02 µM (inactive); in the assay with COLO 205, 0.34 µM (active); with NCI/ADR-RES it was 0.305 µM (active); in the assay with SF-539, 0.233 µM (active); with M19-MEL it was 0.135 µM (active); with MDA-MB-435 it was 0.0214 µM (active). Also, the GI50 in the assay with HCT-116 was 0.175 µM (active); with Hs-578T it was 0.202 µM (active).

`CCC1(OC(C)=O)C(=O)OCc2c1cc1n(c2=O)Cc2cc3ccccc3nc2-1` (stereo unspecified): the GI50 with UO-31 is 1 µM (active); with KM12, 7.6 µM (inactive); in the assay with DLD-1, > 66.4 µM (inactive); in the assay with RXF 393 it was 2.64 µM (inactive); with OVCAR-5, 2.37 µM (inactive); in the assay on 786-0 it was 0.564 µM (active). In addition, the GI50 is 10.7 µM (inactive) in the assay with OVCAR-3; 4.2 µM (inactive) in the assay with RPMI-8226; 7.52 µM (inactive) with IGROV-1; 0.316 µM (active) in the assay on HOP-62; 0.962 µM (active) with SNB-19; 35.1 µM (inactive) in the assay with COLO 205. For the same compound, the GI50 with SF-539 was 0.568 µM (active); in the assay with M19-MEL, 2.48 µM (inactive); with HCT-116 it was 2.03 µM (inactive).

Turning to `CC(=O)OC[C@@H](COC(=O)/C=C/c1ccc(O)cc1)OC1OC(CO)C(O)C(O)C1O` (stereo partly specified), the GI50 in the assay on UO-31, in the assay on KM12, in the assay with DLD-1, with RXF 393, in the assay with OVCAR-5 and with DU-145 was > 100 µM (inactive) throughout. Besides, the GI50 in the assay with 786-0, in the assay with OVCAR-3, with RPMI-8226, with IGROV-1, in the assay on HOP-62 and with SNB-19 was > 100 µM (inactive) each time. Moreover, the GI50 in the assay with COLO 205, with SF-539, with M19-MEL and in the assay on HCT-116 was > 100 µM (inactive) in each case.
